ChEMBL document CHEMBL1201862, “PubChem BioAssay data set” (2004)
Active and inactive are the calls of the source.

Legend:
HEK293 = assay: cells; type: functional, cell-based; conditions: Homo sapiens
[1] = target: T1, Nuclear receptor subfamily 0 group B member 1 (Homo sapiens, UniProt P51843); assay: Luminescence-based cell-based high throughput dose response assay for inhibitors of the orphan nuclear receptor subfamily 0, group B, member 1 (DAX1; NR0B1). [Related pubchem assays (depositor defined):AID504766, AID504790]; type: functional
T1 sequence (P51843 whole entry): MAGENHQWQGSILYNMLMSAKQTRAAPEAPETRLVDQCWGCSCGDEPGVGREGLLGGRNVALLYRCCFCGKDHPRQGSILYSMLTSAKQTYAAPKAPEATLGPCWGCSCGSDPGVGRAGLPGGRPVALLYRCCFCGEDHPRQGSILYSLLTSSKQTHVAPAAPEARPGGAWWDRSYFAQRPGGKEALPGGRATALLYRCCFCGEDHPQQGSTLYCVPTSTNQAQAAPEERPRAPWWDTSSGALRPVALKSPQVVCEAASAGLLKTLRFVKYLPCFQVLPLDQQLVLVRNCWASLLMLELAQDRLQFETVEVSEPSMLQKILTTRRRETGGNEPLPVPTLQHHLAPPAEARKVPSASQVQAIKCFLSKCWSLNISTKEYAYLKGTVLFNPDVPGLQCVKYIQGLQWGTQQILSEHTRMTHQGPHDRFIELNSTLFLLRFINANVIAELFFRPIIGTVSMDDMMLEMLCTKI

Cytochrome P450 2C9 [2] = target: T2, Cytochrome P450 2C9 (Homo sapiens, UniProt P11712)
T2 sequence (P11712 whole entry): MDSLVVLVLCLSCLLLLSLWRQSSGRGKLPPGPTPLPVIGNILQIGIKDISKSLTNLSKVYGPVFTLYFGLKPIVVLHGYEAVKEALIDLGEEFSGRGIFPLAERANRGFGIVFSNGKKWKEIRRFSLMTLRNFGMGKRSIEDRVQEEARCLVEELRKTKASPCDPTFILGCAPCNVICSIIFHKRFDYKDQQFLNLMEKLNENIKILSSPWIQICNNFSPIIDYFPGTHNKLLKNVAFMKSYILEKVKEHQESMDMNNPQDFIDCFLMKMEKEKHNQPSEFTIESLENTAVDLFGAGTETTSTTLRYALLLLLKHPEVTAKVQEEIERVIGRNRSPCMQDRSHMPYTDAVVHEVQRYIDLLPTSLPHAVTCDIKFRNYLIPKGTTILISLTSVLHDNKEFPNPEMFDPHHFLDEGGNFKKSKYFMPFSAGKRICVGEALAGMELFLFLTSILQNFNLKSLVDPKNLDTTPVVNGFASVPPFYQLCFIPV

Cytochrome P450 3A4 = Cytochrome P450 3A4 (Homo sapiens, UniProt P08684);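 further: CYP3A4 tested as one member of a cytochrome P450 panel screen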
Sequence of Cytochrome P450 3A4 (P08684 whole entry): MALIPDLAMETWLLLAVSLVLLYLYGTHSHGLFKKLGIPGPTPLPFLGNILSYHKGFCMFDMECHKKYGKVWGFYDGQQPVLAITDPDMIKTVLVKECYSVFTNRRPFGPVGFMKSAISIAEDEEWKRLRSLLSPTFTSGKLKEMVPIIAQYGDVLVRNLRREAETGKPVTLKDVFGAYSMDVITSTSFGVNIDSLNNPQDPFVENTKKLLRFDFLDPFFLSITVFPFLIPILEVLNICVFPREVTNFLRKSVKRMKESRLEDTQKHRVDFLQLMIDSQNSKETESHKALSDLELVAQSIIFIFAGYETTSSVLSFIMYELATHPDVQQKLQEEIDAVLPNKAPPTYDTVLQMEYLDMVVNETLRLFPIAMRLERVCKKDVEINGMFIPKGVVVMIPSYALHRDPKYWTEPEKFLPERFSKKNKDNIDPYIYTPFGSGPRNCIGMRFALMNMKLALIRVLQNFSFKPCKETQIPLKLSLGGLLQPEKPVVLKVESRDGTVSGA

SUMO E1/E2 = SUMO E1/E2 (Homo sapiens, UniProt P63279+Q9UBE0+Q9UBT2); assay: SAR analysis of SUMOylation using HTRF in an in-Vitro dose response assay. [Related pubchem assays (depositor defined):AID2006, AID2011, AID2018, AID2069, AID2658]; type: functional
Sequence of SUMO E1/E2 (Q9UBE0 whole entry): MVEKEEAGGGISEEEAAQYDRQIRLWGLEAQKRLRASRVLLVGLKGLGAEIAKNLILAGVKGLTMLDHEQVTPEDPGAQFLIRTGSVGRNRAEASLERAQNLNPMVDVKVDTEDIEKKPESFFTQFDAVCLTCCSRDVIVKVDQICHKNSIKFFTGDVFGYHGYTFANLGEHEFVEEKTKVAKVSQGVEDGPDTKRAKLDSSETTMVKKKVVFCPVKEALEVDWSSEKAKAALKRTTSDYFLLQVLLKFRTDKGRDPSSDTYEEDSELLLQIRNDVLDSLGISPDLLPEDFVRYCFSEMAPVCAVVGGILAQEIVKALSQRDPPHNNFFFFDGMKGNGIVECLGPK
Sequence of SUMO E1/E2 (Q9UBT2 whole entry): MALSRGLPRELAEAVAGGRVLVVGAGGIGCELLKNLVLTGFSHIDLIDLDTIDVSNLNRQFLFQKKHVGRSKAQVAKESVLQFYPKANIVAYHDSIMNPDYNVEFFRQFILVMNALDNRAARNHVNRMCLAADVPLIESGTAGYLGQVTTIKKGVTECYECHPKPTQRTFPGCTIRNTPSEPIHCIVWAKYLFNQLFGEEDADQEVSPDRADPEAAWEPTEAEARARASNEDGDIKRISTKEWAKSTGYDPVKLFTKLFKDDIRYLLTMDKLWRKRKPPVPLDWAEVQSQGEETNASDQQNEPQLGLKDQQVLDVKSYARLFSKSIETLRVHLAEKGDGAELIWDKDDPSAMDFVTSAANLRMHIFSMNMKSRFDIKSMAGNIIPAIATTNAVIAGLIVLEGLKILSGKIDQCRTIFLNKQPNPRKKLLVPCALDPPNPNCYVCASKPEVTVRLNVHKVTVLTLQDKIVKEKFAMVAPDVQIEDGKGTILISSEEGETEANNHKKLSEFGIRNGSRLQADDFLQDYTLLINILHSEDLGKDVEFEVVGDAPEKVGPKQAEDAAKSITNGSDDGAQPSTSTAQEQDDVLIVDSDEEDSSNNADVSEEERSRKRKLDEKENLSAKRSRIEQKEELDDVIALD
Sequence of SUMO E1/E2 (P63279 whole entry): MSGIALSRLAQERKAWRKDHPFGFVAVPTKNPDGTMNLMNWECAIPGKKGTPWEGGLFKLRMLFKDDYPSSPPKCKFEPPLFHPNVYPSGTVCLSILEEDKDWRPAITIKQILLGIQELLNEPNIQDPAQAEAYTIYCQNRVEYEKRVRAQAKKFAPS

cells = type: functional
[3] = target: T3, Replicative DNA helicase DnaB (Mycobacterium tuberculosis, UniProt P9WMR3); assay: DnaB intein splicing inhibitors, dose response, biochemical, cell-free fluorescence (AID 449749); type: functional
T3 sequence (P9WMR3 whole entry): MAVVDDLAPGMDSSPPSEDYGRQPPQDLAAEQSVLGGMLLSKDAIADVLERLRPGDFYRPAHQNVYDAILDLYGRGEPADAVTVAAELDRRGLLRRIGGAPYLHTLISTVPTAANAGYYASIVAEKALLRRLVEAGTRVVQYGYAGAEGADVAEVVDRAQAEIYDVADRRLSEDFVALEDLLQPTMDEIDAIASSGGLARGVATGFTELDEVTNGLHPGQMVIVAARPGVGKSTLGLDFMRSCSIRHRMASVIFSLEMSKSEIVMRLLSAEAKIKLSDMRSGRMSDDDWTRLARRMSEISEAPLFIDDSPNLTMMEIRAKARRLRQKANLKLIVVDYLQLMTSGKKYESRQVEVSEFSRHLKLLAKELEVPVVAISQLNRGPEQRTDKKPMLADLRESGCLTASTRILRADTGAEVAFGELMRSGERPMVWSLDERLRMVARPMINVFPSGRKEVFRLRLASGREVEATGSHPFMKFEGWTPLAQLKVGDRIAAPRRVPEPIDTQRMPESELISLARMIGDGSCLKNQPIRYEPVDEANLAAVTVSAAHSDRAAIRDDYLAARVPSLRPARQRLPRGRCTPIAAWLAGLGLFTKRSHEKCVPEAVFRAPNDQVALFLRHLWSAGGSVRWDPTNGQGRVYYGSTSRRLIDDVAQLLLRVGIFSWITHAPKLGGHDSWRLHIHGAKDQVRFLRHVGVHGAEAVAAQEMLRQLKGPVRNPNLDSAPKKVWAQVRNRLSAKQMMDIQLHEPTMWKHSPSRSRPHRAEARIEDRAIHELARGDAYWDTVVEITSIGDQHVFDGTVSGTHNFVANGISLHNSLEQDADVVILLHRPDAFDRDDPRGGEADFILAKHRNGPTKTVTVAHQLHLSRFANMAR

Protein RecA = target: T4, Protein RecA (Mycobacterium tuberculosis, UniProt P9WHJ3); assay: Fluorescence Cell-Free Homogeneous Dose Retest to Identify Inhibitors of RecA-Intein Splicing Activity. [Related pubchem assays (depositor defined):AID2097, AID2223, AID489010, AID492950]; type: functional
T4 sequence (P9WHJ3 whole entry): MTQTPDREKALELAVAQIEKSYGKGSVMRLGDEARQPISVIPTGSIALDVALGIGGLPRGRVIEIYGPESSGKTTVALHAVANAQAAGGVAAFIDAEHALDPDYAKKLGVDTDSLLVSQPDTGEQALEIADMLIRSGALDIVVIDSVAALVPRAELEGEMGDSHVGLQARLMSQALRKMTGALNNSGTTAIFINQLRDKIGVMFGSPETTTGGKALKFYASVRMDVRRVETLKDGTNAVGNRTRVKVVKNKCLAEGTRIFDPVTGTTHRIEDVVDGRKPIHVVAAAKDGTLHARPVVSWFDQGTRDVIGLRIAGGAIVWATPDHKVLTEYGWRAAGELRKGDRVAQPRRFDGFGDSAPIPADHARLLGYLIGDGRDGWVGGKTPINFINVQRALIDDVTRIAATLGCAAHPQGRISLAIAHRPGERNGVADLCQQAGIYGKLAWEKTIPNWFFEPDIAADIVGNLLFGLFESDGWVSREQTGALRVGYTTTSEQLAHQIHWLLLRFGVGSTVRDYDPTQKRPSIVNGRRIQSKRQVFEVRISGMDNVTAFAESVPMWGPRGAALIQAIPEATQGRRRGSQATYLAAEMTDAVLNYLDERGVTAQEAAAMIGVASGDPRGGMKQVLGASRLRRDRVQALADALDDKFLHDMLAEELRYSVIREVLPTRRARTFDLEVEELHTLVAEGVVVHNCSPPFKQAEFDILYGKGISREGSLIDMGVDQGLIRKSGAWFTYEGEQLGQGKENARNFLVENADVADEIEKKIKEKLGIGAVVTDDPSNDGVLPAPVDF

Genome polyprotein = Genome polyprotein (dengue virus type 2, UniProt P29990); assay: Dengue-2 NS5 methyltransferase inhibitors, primary screen, biochemical, confirmation dose response (AID 588689); type: functional
Sequence of Genome polyprotein (P29990 2492-3391 limits assumed): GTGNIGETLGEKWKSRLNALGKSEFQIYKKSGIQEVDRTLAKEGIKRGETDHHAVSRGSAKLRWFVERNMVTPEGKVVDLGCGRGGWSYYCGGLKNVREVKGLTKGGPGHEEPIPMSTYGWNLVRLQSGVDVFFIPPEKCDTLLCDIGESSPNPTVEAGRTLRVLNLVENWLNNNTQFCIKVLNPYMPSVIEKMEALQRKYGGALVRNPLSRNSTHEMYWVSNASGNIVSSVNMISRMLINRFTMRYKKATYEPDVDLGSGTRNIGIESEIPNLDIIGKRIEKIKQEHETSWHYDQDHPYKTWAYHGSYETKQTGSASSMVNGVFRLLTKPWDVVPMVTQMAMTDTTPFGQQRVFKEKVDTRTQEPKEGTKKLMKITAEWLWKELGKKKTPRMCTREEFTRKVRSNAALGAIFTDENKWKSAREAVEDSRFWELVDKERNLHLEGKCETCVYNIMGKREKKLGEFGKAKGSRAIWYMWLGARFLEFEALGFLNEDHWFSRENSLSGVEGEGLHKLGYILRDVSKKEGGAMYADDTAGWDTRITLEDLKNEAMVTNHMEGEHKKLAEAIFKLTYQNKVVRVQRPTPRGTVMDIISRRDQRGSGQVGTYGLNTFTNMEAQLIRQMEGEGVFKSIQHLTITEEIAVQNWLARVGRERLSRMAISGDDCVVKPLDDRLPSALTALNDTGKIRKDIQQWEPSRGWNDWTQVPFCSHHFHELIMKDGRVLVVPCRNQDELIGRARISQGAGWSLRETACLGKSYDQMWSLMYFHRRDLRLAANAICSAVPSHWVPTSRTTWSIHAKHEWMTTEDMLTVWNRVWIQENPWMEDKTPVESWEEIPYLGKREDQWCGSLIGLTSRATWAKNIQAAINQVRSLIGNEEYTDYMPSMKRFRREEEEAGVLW

[4] = target: T5, Sentrin-specific protease 8 (Homo sapiens, UniProt Q96LD8); type: functional
T5 sequence (Q96LD8 whole entry): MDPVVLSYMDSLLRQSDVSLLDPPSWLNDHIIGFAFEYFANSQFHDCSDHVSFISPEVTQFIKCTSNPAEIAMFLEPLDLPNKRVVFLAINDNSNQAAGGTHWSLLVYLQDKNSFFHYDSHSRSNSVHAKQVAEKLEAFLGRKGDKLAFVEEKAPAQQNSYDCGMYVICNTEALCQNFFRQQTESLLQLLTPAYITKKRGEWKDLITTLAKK

[5] = target: T5, Sentrin-specific protease 8; type: functional; remark: listed apart in the source
Cytochrome P450 2C19 = Cytochrome P450 2C19 (Homo sapiens, UniProt P33261); assay: Cytochrome panel assay with activity outcomes. Panel member name: p450-cyp2c19 Compounds with AC50 equal or less than 10 uM are considered active; type: functional; conditions: read-out: AC50
Sequence of Cytochrome P450 2C19 (P33261 whole entry): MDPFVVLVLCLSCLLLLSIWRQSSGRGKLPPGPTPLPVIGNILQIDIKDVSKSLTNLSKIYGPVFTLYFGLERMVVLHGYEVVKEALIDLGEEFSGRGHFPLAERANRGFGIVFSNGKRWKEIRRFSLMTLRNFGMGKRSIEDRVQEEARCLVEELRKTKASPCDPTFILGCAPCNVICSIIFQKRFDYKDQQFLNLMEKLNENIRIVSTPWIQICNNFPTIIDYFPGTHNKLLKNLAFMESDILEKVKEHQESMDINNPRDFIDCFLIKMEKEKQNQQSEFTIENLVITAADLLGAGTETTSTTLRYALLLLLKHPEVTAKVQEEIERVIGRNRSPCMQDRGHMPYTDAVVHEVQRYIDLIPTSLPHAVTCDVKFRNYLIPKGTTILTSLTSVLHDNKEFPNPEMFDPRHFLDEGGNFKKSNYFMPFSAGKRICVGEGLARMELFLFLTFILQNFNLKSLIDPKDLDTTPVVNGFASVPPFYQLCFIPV

Cytochrome P450 2C9 [6] = target: T2, Cytochrome P450 2C9; remark: listed apart in the source
[7] = target: T6, Endoribonuclease toxin MazF (Escherichia coli K-12, UniProt P0AE70); assay: MazF toxin RNase activators, dose response, biochemical, fluorescence, single-stranded RNA substrate, uHTS hits (AID 588481); type: functional
T6 sequence (P0AE70 whole entry): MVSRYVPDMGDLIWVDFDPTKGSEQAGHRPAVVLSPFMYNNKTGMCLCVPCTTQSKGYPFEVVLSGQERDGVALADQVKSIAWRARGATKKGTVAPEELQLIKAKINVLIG

[8] = target: T6, Endoribonuclease toxin MazF; assay: fluorescent RNA oligo signal without MazF, dose response, counter-screen for MazEF activator project, biochemical, fluorescence, single-stranded RNase substrate (AID 588502); type: functional
[9] = inhibitors of firefly luciferase expression or activity, dose response, H4 neuroglioma cells, luminescence (AID 1990); type: functional, cell-based
[10] = target: T7, RNA-binding protein pos-1 (Caenorhabditis elegans, UniProt G5EF15); assay: inhibitors of POS-1/mex-3 RNA binding, dose response, biochemical, fluorescence polarization (AID 1964);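 further: purified POS-1 fused to maltose binding protein made in E. coli; potency of compounds blocking POS-1 binding to fluorescent RNA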
T7 sequence (G5EF15 whole entry): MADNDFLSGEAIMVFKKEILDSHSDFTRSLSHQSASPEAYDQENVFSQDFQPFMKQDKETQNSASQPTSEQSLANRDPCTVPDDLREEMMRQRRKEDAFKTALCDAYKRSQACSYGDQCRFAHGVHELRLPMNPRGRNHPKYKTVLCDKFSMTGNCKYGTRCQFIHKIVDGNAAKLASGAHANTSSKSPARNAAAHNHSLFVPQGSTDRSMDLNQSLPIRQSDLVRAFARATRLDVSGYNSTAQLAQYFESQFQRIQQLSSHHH

[11] = Luminescence Cell-Based Dose Response HTS to Identify Inhibitors of 5'UTR Stem-Loop Driven Prion Protein mRNA Translation in H4 Neuroglioblastoma Cells. [Related pubchem assays: 1827 (Project Summary), 1813 (Primary HTS)]; type: functional
[12] = target: T8, Zinc finger protein mex-5 (Caenorhabditis elegans, UniProt Q9XUB2); assay: MEX-5/TCR-2 RNA interaction inhibitors, dose response, biochemical, C. elegans, fluorescence polarization (AID 1960)
T8 sequence (Q9XUB2 whole entry): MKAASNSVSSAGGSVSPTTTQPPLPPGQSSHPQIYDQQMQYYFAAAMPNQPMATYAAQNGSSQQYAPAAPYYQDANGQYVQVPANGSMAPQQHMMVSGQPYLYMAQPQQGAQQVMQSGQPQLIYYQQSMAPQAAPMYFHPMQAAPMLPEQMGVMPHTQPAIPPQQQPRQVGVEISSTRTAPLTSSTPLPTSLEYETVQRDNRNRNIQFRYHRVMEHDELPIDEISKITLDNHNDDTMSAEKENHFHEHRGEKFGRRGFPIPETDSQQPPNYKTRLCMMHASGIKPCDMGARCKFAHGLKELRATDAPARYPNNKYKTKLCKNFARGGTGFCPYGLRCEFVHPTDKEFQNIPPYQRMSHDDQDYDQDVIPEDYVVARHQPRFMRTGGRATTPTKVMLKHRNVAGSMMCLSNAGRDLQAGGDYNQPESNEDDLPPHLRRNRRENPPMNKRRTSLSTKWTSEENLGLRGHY

[13] = inhibitors of SNCA 5'UTR-driven reporter translation, confirmation, H4 neuroglioma cells, luminescence (AID 1988); type: functional, cell-based
[14] = target: Dual specificity tyrosine-phosphorylation-regulated kinase 1A (Rattus norvegicus, UniProt Q63470); type: biochemical, Homo sapiens
[15] = system: Streptococcus sp. 'group A'; assay: growth inhibition of control SK(-) GAS strain, dose response, counter-screen for streptokinase expression inhibitor project, luminescence, kanamycin, BacTiterGlo, confirmation (AID 1900); type: functional, organism-based
Streptococcus = assay: Group A Streptococcus viability loss, dose response, counter-screen for streptokinase expression inhibitor project, luminescence, BacTiterGlo (AID 1915); type: functional, organism-based;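 further: potency for reduction of bacterial viability or growth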
[16] = target: FAD-linked sulfhydryl oxidase ALR (Homo sapiens, UniProt P55789); assay: inhibitors of human ALR sulfhydryl oxidase, dose response, biochemical, H2O2 detection, luminescence, cherry-pick (AID 493248)
Sequence of FAD-linked sulfhydryl oxidase ALR (P55789 whole entry): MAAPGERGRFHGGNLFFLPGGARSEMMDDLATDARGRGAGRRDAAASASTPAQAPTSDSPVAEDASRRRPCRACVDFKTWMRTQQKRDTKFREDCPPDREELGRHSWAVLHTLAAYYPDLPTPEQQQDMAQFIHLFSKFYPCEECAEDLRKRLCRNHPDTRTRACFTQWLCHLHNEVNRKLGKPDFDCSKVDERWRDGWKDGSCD

[17] = target: Dual specificity protein kinase CLK1 (Homo sapiens, UniProt P49759); assay: CLK1 kinase inhibitors, off-target check, dose response, selectivity assay for Dyrk1A inhibitor project, biochemical, cherry-picked samples (AID 588811)
Sequence of Dual specificity protein kinase CLK1 (P49759 whole entry): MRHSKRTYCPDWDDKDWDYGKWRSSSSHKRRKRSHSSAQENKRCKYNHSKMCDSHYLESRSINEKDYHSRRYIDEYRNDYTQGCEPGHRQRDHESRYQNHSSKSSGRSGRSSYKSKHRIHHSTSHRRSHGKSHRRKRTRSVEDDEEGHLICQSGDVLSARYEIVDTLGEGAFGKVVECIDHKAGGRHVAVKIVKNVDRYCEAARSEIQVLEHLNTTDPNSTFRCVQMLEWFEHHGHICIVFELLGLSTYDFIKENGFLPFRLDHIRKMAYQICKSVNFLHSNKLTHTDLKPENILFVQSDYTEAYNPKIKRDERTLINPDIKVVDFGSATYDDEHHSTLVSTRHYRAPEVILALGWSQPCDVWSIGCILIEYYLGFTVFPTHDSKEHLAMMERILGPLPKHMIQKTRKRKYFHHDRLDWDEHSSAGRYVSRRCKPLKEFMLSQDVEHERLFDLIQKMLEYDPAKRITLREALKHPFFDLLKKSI

Structure (SMILES): CCn1c(=O)c(C(=O)NNS(=O)(=O)c2ccc(Br)cc2)c(O)c2ccccc21
- IC50 (HEK293): > 67.6 µM (inactive)
- IC50 [1]: > 67.6 µM (inactive)

Structure (SMILES): O=C(c1ccco1)N1CCC2(CC1)CCN(C(c1ccccc1)c1ccccc1)CC2
- AC50 (Cytochrome P450 2C9 [2]): 39.8 µM (inconclusive)
- AC50 (Cytochrome P450 3A4): inconclusive

Structure (SMILES): Cc1n[nH]c(O)c1C(c1ccc(-c2ccc(F)cc2)o1)c1c(C)n[nH]c1O
- IC50 (SUMO E1/E2): > 100 µM (inactive)
- IC50 (cells): 41.6 µM (active)
- AC50 [3]: 321 nM (active)
- EC50 (Protein RecA): 297 nM (active)
- IC50 (Genome polyprotein): 58.1 µM (active)
- IC50 [4]: 14 µM (active)
- IC50 [5]: 12.3 µM (active)

Structure (SMILES): CC(=O)OCc1nc2ccccc2s1
- AC50 (Cytochrome P450 2C19): 25.1 µM (inconclusive)
- AC50 (Cytochrome P450 3A4): inconclusive
- AC50 (Cytochrome P450 2C9 [6]): inconclusive

Structure (SMILES): COc1ccc(-c2noc(-c3ccoc3C)n2)cc1
- IC50 (HEK293): > 67.6 µM (inactive)
- IC50 [1]: > 67.6 µM (inactive)

Structure (SMILES): Cn1cccc1/C=C1\SC(=O)N(c2ccc(O)cc2)C1=O
- EC50 [7]: > 99 µM (inactive)
- EC50 [8]: 29.2 µM (inactive)

Structure (SMILES): CCOC(=O)CN1C(=O)Nc2ccc(Br)cc2C1c1ccccc1 (centres undefined)
- AC50 (Cytochrome P450 3A4): inconclusive

Structure (SMILES): Cc1c(N/C=C2/C(=O)N(C)C(=O)c3ccccc32)c(=O)n(-c2ccccc2)n1C
- EC50 [9]: > 120 µM (not active)
- EC50 [10]: > 300 µM (not active)
- EC50 [11]: > 120 µM (not active)
- EC50 [12]: > 300 µM (inconclusive)
- EC50 [13]: > 120 µM (not active)
- EC50 [7]: > 99 µM (inactive)
- EC50 [8]: 56.4 µM (inactive)

Structure (SMILES): Cc1cccc(-c2nc(Nc3ccc(O)cc3)c3ccccc3n2)c1
- AC50 [14]: 1.1 µM (active)

Structure (SMILES): Cc1noc(NS(=O)(=O)c2ccc(NC(=O)c3oc4ccc(Cl)cc4c3C)cc2)c1C
- EC50 [15]: 8.14 µM (active)
- EC50 (Streptococcus): 36.9 µM (active)
- AC50 [16]: 626 nM (active)
- AC50 [17]: 10 µM (active)
- AC50 [14]: 6.88 µM (active)

Structure (SMILES): COc1ccc(C(=O)Nc2nc(C)c(C(C)=O)s2)cc1S(=O)(=O)N1CCOCC1
- EC50 [7]: > 99 µM (inactive)
- EC50 [8]: > 99 µM (inactive)
